Laboratory results: PubChem BioAssay AID1259407 (Chemical Carcinogenesis Research Information System (CCRIS), 2018)
Activity calls are given as the source filed them. The rule behind the calls is not given here.

Tested on: CCRIS mutagenicity, Ames/micronucleus/aberration tests
Assay: CCRIS mutagenicity studies

Cc1ccc(N)cc1N
mutagenic call (End Point: IN VITRO CHROMOSOMAL ABERRATIONS, Test System: CHL CELLS, Metabolic Activation: NONE): active; positive (structural changes)
mutagenic call (End Point: IN VITRO CHROMOSOMAL ABERRATIONS, Test System: CHL CELLS, Metabolic Activation: RAT, LIVER, S-9, SODIUM PHENOBARBITAL AND 5,6-BENZOFLAVONE): active; positive (structural changes)
mutagenic call (End Point: IN VITRO CHROMOSOMAL ABERRATIONS, Test System: CHO-LB CELLS, Metabolic Activation: NONE): active; positive
mutagenic call (End Point: IN VITRO CHROMOSOMAL ABERRATIONS, Test System: CHO-LB CELLS, Metabolic Activation: RAT, LIVER, S-9, AROCLOR 1254): active; positive
mutagenic call (End Point: IN VITRO CHROMOSOMAL ABERRATIONS, Test System: CHO-WBL CELLS, Metabolic Activation: NONE): active; positive
mutagenic call (End Point: IN VITRO MICRONUCLEUS, Test System: HUMAN HEPATOMA HEP G2 CELLS, Metabolic Activation: NONE): active; positive
mutagenic call (Test System: AMES SALMONELLA TYPHIMURIUM, Strain/Indicator: TA97, Metabolic Activation: RAT, LIVER, S-9, AROCLOR 1254 (4 OR 10%), Method: STANDARD PLATE): inactive; negative
mutagenic call (Test System: AMES SALMONELLA TYPHIMURIUM, Strain/Indicator: TA98(1,8-DNP6), Metabolic Activation: PLANT CELLS, Method: PREINCUBATION): inactive; negative
mutagenic call (Test System: AMES SALMONELLA TYPHIMURIUM, Strain/Indicator: TA98(1,8-DNP6), Metabolic Activation: RAT, LIVER, S-9, AROCLOR 1254, Method: STANDARD PLATE): inactive; negative
mutagenic call (Test System: AMES SALMONELLA TYPHIMURIUM, Strain/Indicator: TA98(PYG219), Metabolic Activation: RAT, LIVER, S-9, AROCLOR 1254, Method: STANDARD PLATE): active; positive
mutagenic call (Test System: AMES SALMONELLA TYPHIMURIUM, Strain/Indicator: TA98, Metabolic Activation: MOUSE, LIVER, S-9, PHENOBARBITONE AND BETA-NAPHTHOFLAVONE, Method: STANDARD PLATE): active; positive
mutagenic call (Test System: AMES SALMONELLA TYPHIMURIUM, Strain/Indicator: TA98, Metabolic Activation: NONE, Method: MICROSUSPENSION): inactive; negative
mutagenic call (Test System: AMES SALMONELLA TYPHIMURIUM, Strain/Indicator: TA98, Metabolic Activation: NONE, Method: SUSPENSION/PLATE): inactive; negative
mutagenic call (Test System: AMES SALMONELLA TYPHIMURIUM, Strain/Indicator: TA98, Metabolic Activation: PLANT CELLS, Method: PREINCUBATION): inactive; negative
mutagenic call (Test System: AMES SALMONELLA TYPHIMURIUM, Strain/Indicator: TA98, Metabolic Activation: RAT LIVER CYTOSOL, AROCLOR 1254, Method: PREINCUBATION): inactive; negative
mutagenic call (Test System: AMES SALMONELLA TYPHIMURIUM, Strain/Indicator: TA98, Metabolic Activation: RAT LIVER MICROSOMES, AROCLOR 1254, Method: PREINCUBATION): active; positive
mutagenic call (Test System: AMES SALMONELLA TYPHIMURIUM, Strain/Indicator: TA98, Metabolic Activation: RAT LIVER S-9, AROCLOR 1254, Method: MICROSUSPENSION): active; positive
mutagenic call (Test System: AMES SALMONELLA TYPHIMURIUM, Strain/Indicator: TA98, Metabolic Activation: RAT LIVER S-9, PHENOBARBITAL AND BETA-NAPHTHOFLAVONE, Method: PREINCUBATION): active; positive
mutagenic call (Test System: AMES SALMONELLA TYPHIMURIUM, Strain/Indicator: TA98, Metabolic Activation: RAT, LIVER, HEPATOCYTES, AROCLOR 1254, Method: STANDARD PLATE): active; positive
mutagenic call (Test System: AMES SALMONELLA TYPHIMURIUM, Strain/Indicator: TA98, Metabolic Activation: RAT, LIVER, MICROSOMES, AROCLOR 1254, Method: PREINCUBATION): active; positive
mutagenic call (Test System: AMES SALMONELLA TYPHIMURIUM, Strain/Indicator: TA98, Metabolic Activation: RAT, LIVER, MICROSOMES, BENZO[A]PYRENE, Method: PREINCUBATION): active; positive
mutagenic call (Test System: AMES SALMONELLA TYPHIMURIUM, Strain/Indicator: TA98, Metabolic Activation: RAT, LIVER, MICROSOMES, CLOFIBRATE, Method: PREINCUBATION): inactive; negative
mutagenic call (Test System: AMES SALMONELLA TYPHIMURIUM, Strain/Indicator: TA98, Metabolic Activation: RAT, LIVER, MICROSOMES, DEXAMETHASONE, Method: PREINCUBATION): inactive; negative
mutagenic call (Test System: AMES SALMONELLA TYPHIMURIUM, Strain/Indicator: TA98, Metabolic Activation: RAT, LIVER, MICROSOMES, DIAMINOTOLUENE, Method: PREINCUBATION): active; positive
mutagenic call (Test System: AMES SALMONELLA TYPHIMURIUM, Strain/Indicator: TA98, Metabolic Activation: RAT, LIVER, MICROSOMES, ISONIAZID, Method: PREINCUBATION): inactive; negative
mutagenic call (Test System: AMES SALMONELLA TYPHIMURIUM, Strain/Indicator: TA98, Metabolic Activation: RAT, LIVER, MICROSOMES, PHENOBARBITAL, Method: PREINCUBATION): inactive; negative
mutagenic call (Test System: AMES SALMONELLA TYPHIMURIUM, Strain/Indicator: TA98, Metabolic Activation: RAT, LIVER, MICROSOMES, Method: PREINCUBATION): inactive; negative
mutagenic call (Test System: AMES SALMONELLA TYPHIMURIUM, Strain/Indicator: TA98, Metabolic Activation: RAT, LIVER, S-9, AROCLOR 1254, Method: STANDARD PLATE): active; positive
mutagenic call (Test System: AMES SALMONELLA TYPHIMURIUM, Strain/Indicator: TA98, Metabolic Activation: RAT, LIVER, S-9, AROCLOR, Method: PREINCUBATION): active; positive
mutagenic call (Test System: AMES SALMONELLA TYPHIMURIUM, Strain/Indicator: TA98, Metabolic Activation: RAT, LIVER, S-9, PCB, Method: PREINCUBATION): active; positive
mutagenic call (Test System: AMES SALMONELLA TYPHIMURIUM, Strain/Indicator: TA98, Metabolic Activation: RAT, LIVER, S-9, PHENOBARBITAL AND 5,6-BENZOFLAVONE, Method: PREINCUBATION): active; positive
mutagenic call (Test System: AMES SALMONELLA TYPHIMURIUM, Strain/Indicator: TA98, Metabolic Activation: RAT, LIVER, S-9, PHENOBARBITAL AND 5,6-BENZOFLAVONE, Method: SUSPENSION/PLATE): active; positive
mutagenic call (Test System: AMES SALMONELLA TYPHIMURIUM, Strain/Indicator: TA100, Metabolic Activation: NONE, Method: MICROSUSPENSION): inactive; negative
mutagenic call (Test System: AMES SALMONELLA TYPHIMURIUM, Strain/Indicator: TA100, Metabolic Activation: NONE, Method: PREINCUBATION): inactive; negative
mutagenic call (Test System: AMES SALMONELLA TYPHIMURIUM, Strain/Indicator: TA100, Metabolic Activation: NONE, Method: SUSPENSION/PLATE): inactive; negative
mutagenic call (Test System: AMES SALMONELLA TYPHIMURIUM, Strain/Indicator: TA100, Metabolic Activation: RAT LIVER S-9, AROCLOR 1254, Method: MICROSUSPENSION): inactive; negative
mutagenic call (Test System: AMES SALMONELLA TYPHIMURIUM, Strain/Indicator: TA100, Metabolic Activation: RAT LIVER S-9, PHENOBARBITAL AND BETA-NAPHTHOFLAVONE, Method: PREINCUBATION): active; positive
mutagenic call (Test System: AMES SALMONELLA TYPHIMURIUM, Strain/Indicator: TA100, Metabolic Activation: RAT, LIVER, S-9, AROCLOR 1254, Method: STANDARD PLATE): active; positive
mutagenic call (Test System: AMES SALMONELLA TYPHIMURIUM, Strain/Indicator: TA100, Metabolic Activation: RAT, LIVER, S-9, PCB, Method: PREINCUBATION): active; positive
mutagenic call (Test System: AMES SALMONELLA TYPHIMURIUM, Strain/Indicator: TA100, Metabolic Activation: RAT, LIVER, S-9, PHENOBARBITAL AND 5,6-BENZOFLAVONE, Method: PREINCUBATION): active; positive
mutagenic call (Test System: AMES SALMONELLA TYPHIMURIUM, Strain/Indicator: TA100, Metabolic Activation: RAT, LIVER, S-9, PHENOBARBITAL AND 5,6-BENZOFLAVONE, Method: SUSPENSION/PLATE): active; positive
mutagenic call (Test System: AMES SALMONELLA TYPHIMURIUM, Strain/Indicator: TA1535, Metabolic Activation: NONE, Method: PREINCUBATION): inactive; negative
mutagenic call (Test System: AMES SALMONELLA TYPHIMURIUM, Strain/Indicator: TA1535, Metabolic Activation: RAT LIVER S-9, PHENOBARBITAL AND BETA-NAPHTHOFLAVONE, Method: PREINCUBATION): inactive; negative
mutagenic call (Test System: AMES SALMONELLA TYPHIMURIUM, Strain/Indicator: TA1537, Metabolic Activation: NONE, Method: PREINCUBATION): inactive; negative
mutagenic call (Test System: AMES SALMONELLA TYPHIMURIUM, Strain/Indicator: TA1537, Metabolic Activation: RAT LIVER S-9, PHENOBARBITAL AND BETA-NAPHTHOFLAVONE, Method: PREINCUBATION): active; positive
mutagenic call (Test System: AMES SALMONELLA TYPHIMURIUM, Strain/Indicator: TA1537, Metabolic Activation: RAT, LIVER, S-9, AROCLOR 1254 (4 OR 10%), Method: STANDARD PLATE): inactive; negative
mutagenic call (Test System: AMES SALMONELLA TYPHIMURIUM, Strain/Indicator: TA1538, Metabolic Activation: RAT, LIVER, S-9, AROCLOR 1254 (4 OR 10%), Method: STANDARD PLATE): active; positive
mutagenic call (Test System: AMES SALMONELLA TYPHIMURIUM, Strain/Indicator: TA1538, Metabolic Activation: RAT, LIVER, S-9, AROCLOR 1254, Method: STANDARD PLATE): active; positive
mutagenic call (Test System: AMES SALMONELLA TYPHIMURIUM, Strain/Indicator: YG1024, Metabolic Activation: PLANT CELLS, Method: PREINCUBATION): active; positive
mutagenic call (Test System: CHINESE HAMSTER V-79, Strain/Indicator: V-79/6-THIOGUANINE, Metabolic Activation: NONE, Method: SUSPENSION/PLATE): inactive; negative
mutagenic call (Test System: CHINESE HAMSTER V-79, Strain/Indicator: V-79/6-THIOGUANINE, Metabolic Activation: RAT, LIVER, S-9, PHENOBARBITAL AND BETA-NAPHTHOFLAVONE, Method: SUSPENSION/PLATE): inactive; negative
mutagenic call (Test System: E.COLI, Strain/Indicator: WP2UVRA, Metabolic Activation: NONE, Method: PREINCUBATION): inactive; negative
mutagenic call (Test System: E.COLI, Strain/Indicator: WP2UVRA, Metabolic Activation: RAT LIVER S-9, PHENOBARBITAL AND BETA-NAPHTHOFLAVONE, Method: PREINCUBATION): inactive; negative
mutagenic call (Test System: UDS HUMAN HEPATOMA HEPG2 CELLS, Strain/Indicator: THY INCORP, Metabolic Activation: NONE, Method: AUTORADIOGRAPHY): active; positive
mutagenic call (Test System: UDS RAT HEPATOCYTES, Strain/Indicator: BROMODEOXYURIDINE INCORP, Metabolic Activation: NONE, Method: FLOW CYTOMETRIC ANALYSIS): active; positive
mutagenic call (Test System: UDS RAT HEPATOCYTES, Strain/Indicator: THY INCORP, Metabolic Activation: NONE, Method: AUTORADIOGRAPHY): active; positive
